Results as given in PubChem BioAssay AID1919000 (Molecular Pharmacology Branch, DTP, NCI, 2023).
Where “and” joins values, the source holds several entries; their conditions need not be identical. Equal values may be shown once.

Test system: 653999-131-R-J2-PDC complex spheroids, growth % test/control
Test: Anticancer human tumor 653999-131-R-J2-PDC patient-derived lung adenocarcinoma cell line growth inhibition [AhR]
Settings: for viability, T/C: stronger effect = lower value
Procedure, shortened: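 Agents were dosed in half-log steps down from roughly clinical Cmax, or from 10 microM where Cmax was unknown, alone and with AhR antagonists. Read-out: percent test/control growth of tumor spheroids containing HUVEC and MSC stromal cells.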

[1] = curve of first compound, second compound 0.1 µM
[2] = curve of first compound, second compound 0.316 µM
[3] = curve of first compound, second compound 1 µM
[4] = curve of first compound, second compound 3.16 µM
[5] = curve of first compound, second compound 10 µM
[6] = second compound 0.1 µM, first compound 0.000316 µM
[7] = second compound 0.1 µM, first compound 0.001 µM
[8] = second compound 0.1 µM, first compound 0.00316 µM
[9] = second compound 0.1 µM, first compound 0.01 µM
[10] = second compound 0.1 µM, first compound 0.0316 µM
[11] = second compound 0.1 µM, first compound 0.1 µM
[12] = second compound 0.316 µM, first compound 0.000316 µM
[13] = second compound 0.316 µM, first compound 0.001 µM
[14] = second compound 0.316 µM, first compound 0.00316 µM
[15] = second compound 0.316 µM, first compound 0.01 µM
[16] = second compound 0.316 µM, first compound 0.0316 µM
[17] = second compound 0.316 µM, first compound 0.1 µM
[18] = second compound 1 µM, first compound 0.000316 µM
[19] = second compound 1 µM, first compound 0.001 µM
[20] = second compound 1 µM, first compound 0.00316 µM
[21] = second compound 1 µM, first compound 0.01 µM
[22] = second compound 1 µM, first compound 0.0316 µM
[23] = second compound 1 µM, first compound 0.1 µM
[24] = second compound 3.16 µM, first compound 0.000316 µM
[25] = second compound 3.16 µM, first compound 0.001 µM
[26] = second compound 3.16 µM, first compound 0.00316 µM
[27] = second compound 3.16 µM, first compound 0.01 µM
[28] = second compound 3.16 µM, first compound 0.0316 µM
[29] = second compound 3.16 µM, first compound 0.1 µM
[30] = second compound 10 µM, first compound 0.000316 µM
[31] = second compound 10 µM, first compound 0.001 µM
[32] = second compound 10 µM, first compound 0.00316 µM
[33] = second compound 10 µM, first compound 0.01 µM
[34] = second compound 10 µM, first compound 0.0316 µM
[35] = second compound 10 µM, first compound 0.1 µM
[36] = second compound 0.1 µM, first compound 0.316 µM
[37] = second compound 0.1 µM, first compound 1 µM
[38] = second compound 0.316 µM, first compound 0.316 µM
[39] = second compound 0.316 µM, first compound 1 µM
[40] = second compound 1 µM, first compound 0.316 µM
[41] = second compound 1 µM, first compound 1 µM
[42] = second compound 3.16 µM, first compound 0.316 µM
[43] = second compound 3.16 µM, first compound 1 µM
[44] = second compound 10 µM, first compound 0.316 µM
[45] = second compound 10 µM, first compound 1 µM
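Note: spheroids exposed to agents for seven days.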
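Throughout, for viability, T/C: 100% = DMSO vehicle control viability.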

Q: With CC[C@@]1(O)C(=O)OCc2c1cc1n(c2=O)Cc2cc3c(CN(C)C)c(O)ccc3nc2-1 + CC(CO)NC(=O)c1cc(-c2ccc(Cl)cc2)nn(-c2cnn(C)c2)c1=O as the compound, how does the IC50 [1] read?
A: 36.7 nM

Q: What about the IC50 [2] of the same compound?
A: 27.7 nM

Q: And the IC50 [3]?
A: 24.5 nM

Q: What about the IC50 [4] of the same compound?
A: 22.9 nM

Q: What about the IC50 [5] of the same compound?
A: 21 nM

Q: What about the viability, T/C [6] of the same compound?
A: 94.8%

Q: What about the viability, T/C [7] of the same compound?
A: 97.8%

Q: What about the viability, T/C [8] of the same compound?
A: 94.9%

Q: What about the viability, T/C [9] of the same compound?
A: 79%

Q: What about the viability, T/C [10] of the same compound?
A: 52.2%

Q: What about the viability, T/C [11] of the same compound?
A: 38.1%

Q: What about the viability, T/C [12] of the same compound?
A: 93.2%

Q: What about the viability, T/C [13] of the same compound?
A: 94.4%

Q: What about the viability, T/C [14] of the same compound?
A: 97.4%

Q: What about the viability, T/C [15] of the same compound?
A: 79.1%

Q: And the viability, T/C [16]?
A: 46.8%

Q: What about the viability, T/C [17] of the same compound?
A: 31.3%

Q: And the viability, T/C [18]?
A: 111%

Q: And the viability, T/C [19]?
A: 96%

Q: What about the viability, T/C [20] of the same compound?
A: 99.1%

Q: And the viability, T/C [21]?
A: 80.7%

Q: What about the viability, T/C [22] of the same compound?
A: 40.6%

Q: What about the viability, T/C [23] of the same compound?
A: 32.3%

Q: And the viability, T/C [24]?
A: 85.9%

Q: And the viability, T/C [25]?
A: 92.3%

Q: And the viability, T/C [26]?
A: 95.3%

Q: What about the viability, T/C [27] of the same compound?
A: 69.8%

Q: What about the viability, T/C [28] of the same compound?
A: 43.6%

Q: And the viability, T/C [29]?
A: 31.4%

Q: And the viability, T/C [30]?
A: 90.5%

Q: What about the viability, T/C [31] of the same compound?
A: 95.3%

Q: And the viability, T/C [32]?
A: 83.7%

Q: What about the viability, T/C [33] of the same compound?
A: 65.9%

Q: What about the viability, T/C [34] of the same compound?
A: 41.3%

Q: What about the viability, T/C [35] of the same compound?
A: 32.3%

Q: What does the source list for Cc1ccccc1N=Nc1ccc(NC(=O)c2ccnn2C)c(C)c1?
A: viability, T/C (compound 0.1 µM): 96.6% [middle of 19 runs]; viability, T/C (compound 1 µM): 95.3% [middle of 20 runs]; IC50 (compound alone, run of 06/14/2022): > 10000 nM

Q: Which results are given for Nc1ccccc1NC(=O)c1ccc(CNC(=O)OCc2cccnc2)cc1 + CC(CO)NC(=O)c1cc(-c2ccc(Cl)cc2)nn(-c2cnn(C)c2)c1=O?
A: IC50 [1]: 3830 nM; IC50 [2]: 3530 nM; IC50 [3]: 2780 nM; IC50 [4]: 3490 nM; IC50 [5]: 2660 nM; viability, T/C [10]: 86.6%; viability, T/C [11]: 93%; viability, T/C [36]: 78.1%; viability, T/C [37]: 65.4%; viability, T/C (second compound 0.1 µM, first compound 3.16 µM): 65.2%; viability, T/C (second compound 0.1 µM, first compound 10 µM): 13%; viability, T/C [16]: 87.5%; viability, T/C [17]: 85.2%; viability, T/C [38]: 83.7%; viability, T/C [39]: 68.7%; viability, T/C (second compound 0.316 µM, first compound 3.16 µM): 55.5%; viability, T/C (second compound 0.316 µM, first compound 10 µM): 15.6%; viability, T/C [22]: 88%; viability, T/C [23]: 94.3%; viability, T/C [40]: 76.1%; viability, T/C [41]: 65.5%; viability, T/C (second compound 1 µM, first compound 3.16 µM): 50.7%; viability, T/C (second compound 1 µM, first compound 10 µM): 14.2%; viability, T/C [28]: 93.3%; viability, T/C [29]: 95.6%; viability, T/C [42]: 84.5%; viability, T/C [43]: 70%; viability, T/C (second compound 3.16 µM, first compound 3.16 µM): 57.5%; viability, T/C (second compound 3.16 µM, first compound 10 µM): 12.9%; viability, T/C [34]: 91%; viability, T/C [35]: 101%; viability, T/C [44]: 76.2%; viability, T/C [45]: 67.2%; viability, T/C (second compound 10 µM, first compound 3.16 µM): 50.3%; viability, T/C (second compound 10 µM, first compound 10 µM): 6.65%

Q: How did the IC50 [1] turn out when CC1COCCN1c1cc(-c2ccnn2C)c2ccnc(-c3ccn[nH]3)c2n1 (configuration not stated) + Cc1cncc(-c2nc(NCCc3c[nH]c4ccccc34)c3ncn(C(C)C)c3n2)c1 was run?
A: 123 nM

Q: What about the IC50 [2] of the same compound?
A: 129 nM

Q: And the IC50 [3]?
A: 170 nM

Q: And the IC50 [4]?
A: 149 nM

Q: And the IC50 [5]?
A: < 3.16 nM

Q: What about the viability, T/C [8] of the same compound?
A: 100%

Q: What about the viability, T/C [9] of the same compound?
A: 94.6%

Q: What about the viability, T/C [10] of the same compound?
A: 76.3%

Q: What about the viability, T/C [11] of the same compound?
A: 52.3%

Q: What about the viability, T/C [36] of the same compound?
A: 36.7%

Q: What about the viability, T/C [37] of the same compound?
A: 25.2%

Q: What about the viability, T/C [14] of the same compound?
A: 92.8%

Q: What about the viability, T/C [15] of the same compound?
A: 92.4%

Q: What about the viability, T/C [16] of the same compound?
A: 84.8%

Q: What about the viability, T/C [17] of the same compound?
A: 53.5%

Q: What about the viability, T/C [38] of the same compound?
A: 35.5%

Q: And the viability, T/C [39]?
A: 26.4%

Q: And the viability, T/C [20]?
A: 107%

Q: What about the viability, T/C [21] of the same compound?
A: 96.3%

Q: And the viability, T/C [22]?
A: 89.5%

Q: What about the viability, T/C [23] of the same compound?
A: 65.6%

Q: And the viability, T/C [40]?
A: 31.6%

Q: And the viability, T/C [41]?
A: 23.5%

Q: What about the viability, T/C [26] of the same compound?
A: 98.2%

Q: What about the viability, T/C [27] of the same compound?
A: 98.1%

Q: What about the viability, T/C [28] of the same compound?
A: 89.6%

Q: And the viability, T/C [29]?
A: 56.2%

Q: What about the viability, T/C [42] of the same compound?
A: 38.5%

Q: And the viability, T/C [43]?
A: 29.1%

Q: What about the viability, T/C [32] of the same compound?
A: 36.8%

Q: What about the viability, T/C [33] of the same compound?
A: 46.9%

Q: And the viability, T/C [34]?
A: 38%

Q: What about the viability, T/C [35] of the same compound?
A: 34.6%

Q: And the viability, T/C [44]?
A: 25.7%

Q: And the viability, T/C [45]?
A: 27%

Q: How did the viability, T/C (compound 0.0316 µM) turn out when CC1(C)CCC(CN2CCN(c3ccc(C(=O)NS(=O)(=O)c4ccc(NCC5CCOCC5)c([N+](=O)[O-])c4)c(Oc4cnc5[nH]ccc5c4)c3)CC2)=C(c2ccc(Cl)cc2)C1 was run?
A: 108% (2×) and 103%

Q: And the viability, T/C (compound 0.1 µM)?
A: 97.3% and 103% and 116%

Q: What about the viability, T/C (compound 0.316 µM) of the same compound?
A: 98% and 88.8% and 104%

Q: What about the viability, T/C (compound 1 µM) of the same compound?
A: 105% and 102% and 104%

Q: What about the viability, T/C (compound 3.16 µM) of the same compound?
A: 106% and 99.7% and 108%

Q: And the viability, T/C (compound 10 µM)?
A: 85.9% and 58.9% and 74.9%

Q: And the IC50 (curve of compound)?
A: > 10000 nM

Q: What does the source list for O=C(C=Cn1cnc(-c2cc(C(F)(F)F)cc(C(F)(F)F)c2)n1)NNc1cnccn1?
A: viability, T/C (compound 0.00949 µM): 104% and 94.3% and 105%; viability, T/C (compound 0.03 µM): 73.3% and 78.8% and 101%; viability, T/C (compound 0.0949 µM): 61.6% and 77.7% and 76.8%; viability, T/C (compound 0.3 µM): 49.5% and 51.9% and 57.9%; viability, T/C (compound 0.949 µM): 40.9% and 40.5% and 50.6%; viability, T/C (compound 3 µM): 40.6% and 47.6% and 43%; IC50 (curve of compound): 264 nM and 423 nM and 743 nM

Q: Which results are given for Cn1ncnc1C1c2n[nH]c(=O)c3cc(F)cc(c23)NC1c1ccc(F)cc1 (configuration not stated) + Cc1ccccc1N=Nc1ccc(NC(=O)c2ccnn2C)c(C)c1?
A: IC50 [1]: > 100 nM; IC50 [2]: > 100 nM; IC50 [3]: > 100 nM; IC50 [4]: > 100 nM; IC50 [5]: > 100 nM; viability, T/C [6]: 106%; viability, T/C [7]: 84.6%; viability, T/C [8]: 102%; viability, T/C [9]: 92.3%; viability, T/C [10]: 99.9%; viability, T/C [11]: 98%; viability, T/C [12]: 94.3%; viability, T/C [13]: 111%; viability, T/C [14]: 104%; viability, T/C [15]: 95%; viability, T/C [16]: 91.5%; viability, T/C [17]: 92.8%; viability, T/C [18]: 103%; viability, T/C [19]: 96.7%; viability, T/C [20]: 104%; viability, T/C [21]: 108%; viability, T/C [22]: 93.3%; viability, T/C [23]: 95.6%; viability, T/C [24]: 93.4%; viability, T/C [25]: 105%; viability, T/C [26]: 106%; viability, T/C [27]: 94.9%; viability, T/C [28]: 101%; viability, T/C [29]: 103%; viability, T/C [30]: 86.2%; viability, T/C [31]: 104%; viability, T/C [32]: 106%; viability, T/C [33]: 95%; viability, T/C [34]: 109%; viability, T/C [35]: 87.3%
